# Reference: patent US20240181125A1, “COMPOSITIONS AND METHODS FOR SCARLESS WOUND HEALING IN DIABETES” (Washington University, priority 2022, published 2024)
# Bridge positions count the residues as written; N and C are the ends. Peptide text beside a SMILES is read from it. * marks the point of attachment. FITC = O=C1OC2(c3ccc(O)cc3Oc3cc(O)ccc32)c2ccc(NC(=S)*)cc21
# Experiments:
# HAECs = assay: mRNA expression (RT-PCR), HAECs; format: cell-based, human; conditions: high glucose and TGFβ1
# Protocol: To determine the mRNA expression of the cells (HDFs, HaCaTs, and HAECs) treated with TGFβ1 (10 ng/ml) or TGFβ1 (10 ng/ml)/PTβR2I (10 μg/mL) under high glucose conditions, RNA was extracted using Trizol (Invitrogen) and reverse transcribed using a cDNA synthesis kit (Applied Biosystems). Gene expression was performed by real-time RT-PCR, using Maxima SYBR Green/Fluorescein Master Mix (Thermofisher) and selected primer pairs, shown in Table 1 below. β-actin served as the housekeeping gene. The ΔΔCt method was used for data analysis.
# HaCaTs = assay: Cell proliferation (dsDNA) under high glucose and TGFβ1, HaCaT; format: cell-based, human; conditions: high glucose, TGFβ1 10 ng/ml, PTβR2I 10 μg/mL; p<0.05
# Protocol: HDFs, HaCaTs, and HAECs were seeded in 96-well plates at respective densities of 1.5×10^4 cells/mL, 2×10^4 cells/mL, and 2×10^4 cells/mL. High glucose (4.5 g/L) basal medium with 1% P/S was used for the culture. After 24 hours, TGFβ1 (10 ng/ml) or TGFβ1 (10 ng/ml)/PTβR2I (10 μg/mL) was added to the medium. The culture continued for three days. The medium was then replaced by papain solution and incubated at 60° C. for 24 hours. The dsDNA content was tested using a Quant-iT™ PicoGreen dsDNA Assay Kit (Invitrogen).
# TβR2 on HDFs = target: T1, TβR2 on HDFs (Homo sapiens, UniProt P37173); assay: PTβR2I binding and competitive binding with TGFβ1 on HDFs (IF anti-TβR2, FITC intensity); format: cell-based; conditions: 48 hours
# T1 construct: host or cells: human dermal fibroblasts (HDFs)
# T1 sequence (P37173 23-567): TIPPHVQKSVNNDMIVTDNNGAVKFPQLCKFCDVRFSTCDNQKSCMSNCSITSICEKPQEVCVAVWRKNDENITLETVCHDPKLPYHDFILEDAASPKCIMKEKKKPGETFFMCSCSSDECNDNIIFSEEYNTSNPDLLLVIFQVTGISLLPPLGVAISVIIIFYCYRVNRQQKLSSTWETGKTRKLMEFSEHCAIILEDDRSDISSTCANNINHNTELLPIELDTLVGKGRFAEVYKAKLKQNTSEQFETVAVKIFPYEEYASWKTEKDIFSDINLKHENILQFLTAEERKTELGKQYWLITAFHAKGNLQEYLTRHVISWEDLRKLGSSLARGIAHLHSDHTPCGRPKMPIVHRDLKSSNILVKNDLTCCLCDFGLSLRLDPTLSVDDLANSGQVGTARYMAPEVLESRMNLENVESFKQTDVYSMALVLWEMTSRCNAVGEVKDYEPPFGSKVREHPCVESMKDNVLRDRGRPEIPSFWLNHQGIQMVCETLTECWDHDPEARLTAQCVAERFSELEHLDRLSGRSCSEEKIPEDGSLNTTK
# Protocol: To test PTβR2I binding to cells, HDFs (Lonza) were seeded on type I collagen-coated cover glasses and inserted in a 6-well plate. After 24 hours, the following treatments were added into the wells: 1) PTβR2I solution (10 μg/mL) for 48 hours; 2) PTβR2I solution (10 μg/mL) for 24 hours, and then TGFβ1 (10 ng/ml) for another 24 hours; 3) TGFβ1 (10 ng/mL) for 24 hours, and then PTβR2I (10 μg/mL) for another 24 hours; and 4) both PTβR2I (10 μg/mL) and TGFβ1 (10 ng/ml) for 48 hours. Control wells contained HDF-seeded cover glasses without added PTβR2I or TGFβ1, and incubated for 48 hours. After the treatment, cells were fixed by 4% paraformaldehyde and blocked with 10% goat serum in Dulbecco's phosphate-buffered saline (DPBS). Primary antibody mouse anti-TβR2 (1:300, Santa Cruz) that was diluted in DPBS containing 3% BSA was incubated with the cells overnight at 4° C. The cells were washed three times with DPBS. A secondary antibody Alexa Fluro-647 (1:300, Fisher Scientific) was then applied for 2 h at room temperature, followed by incubating with DAPI (Millipore-Sigma) for five minutes.
# To validate the above results, the fluorescence intensity of PTβR2I bound to the HDFs was measured for each treatment. Briefly, HDFs (Lonza) were seeded on type I collagen-coated 96-well black microplates. […] The fluorescence intensity was measured using the same microplate reader.
# TGFβ1/p-Smad2/3 pathway = assay: Immunoblotting/IF of p-Smad2/3 and α-SMA in HDFs; format: cell-based, human
# Protocol: For in vitro tests, protein lysates were collected from HDFs. Pre-cooled cell scrapers were used to detach the cells, and the cells were re-suspended in RIPA lysis buffer with the inhibitor cocktail. For in vivo tests, wound skin tissues were washed three times with pre-cooled DPBS, dissected into small pieces, and re-suspended in RIPA lysis buffer containing protease and phosphatase inhibitors. Homogenization was then performed thereafter with an ultrasonic processor (Cole Parmer). After centrifugation at 12,000 g for 20 min, the supernatants were collected, and protein concentrations were measured using a Bradford protein assay kit (Bio-rad).
# The protein samples were separated by 10% Mini-PROTEAN TGX stain-free precast gels (Bio-rad) and transferred onto an immune-blot PVDF membrane. The blots were washed three times with DPBS containing 0.1% Tween 20 (PBST), blocked with 5% milk powder in PBST buffer for 40 min, and incubated with primary antibodies at specific dilutions overnight at 4° C. The primary antibodies included rabbit GAPDH antibody (1:5000, Cell signaling), rabbit anti-a-smooth muscle actin (α-SMA) antibody (1:2000, Cell signaling), rabbit anti-phospho-Smad2(Ser465/467)/Smad3 (Ser423/425) (1:500, Cell signaling), and rabbit anti-phospho-p38 (1:500, Cell signaling). The membranes were washed three times with PBST and incubated with horseradish peroxidase (HRP)-conjugated secondary antibodies (1:2500). Immunoblots were then washed with PBST and detected with a WesternBright HRP substrate detection kit (Advansta). The ChemiDoc XPS+system (Bio-rad) was used to image the blots.
# [1] = test system: human keratinocyte HaCaT cells; assay: Cytotoxicity of PTβR2I on HaCaT cells; format: cell-based; design: dose or concentration left out as unconfirmed; conditions: 1 to 100
smiles,measurement,setting,value
"CC(C)C[C@@H]1NC(=O)CNC(=O)[C@@H](NC(=O)[C@@H](N)CCC(=O)O)CSSC[C@@H](C(=O)N[C@@H](CCCCNC(=S)Nc2ccc3c(c2)C(=O)OC32c3ccc(O)cc3Oc3cc(O)ccc32)C(=O)O)NC(=O)[C@H](CC(C)C)NC(=O)[C@H](CCCNC(=N)N)NC(=O)[C@H](Cc2c[nH]c3ccccc23)NC(=O)[C@H](C(C)C)NC(=O)[C@H](CCCNC(=N)N)NC(=O)[C@H](CC(=O)O)NC(=O)[C@@H]2CCCN2C(=O)[C@H](CCCNC(=N)N)NC(=O)CNC(=O)[C@H](C(C)C)NC(=O)[C@@H]2CCCN2C(=O)[C@H](CC(C)C)NC1=O [PTβR2I, ECGLLPVGRPDRVWRLCK-FITC] (H-ECGLLPVGRPDRVWRLCK(FITC)-OH; disulfide 2-17; N-terminus and C-terminus assumed)",HGF gene expression,HAECs,significantly enhanced
same,VEGFA gene expression,HAECs,significantly enhanced
same,"proliferation (dsDNA, day 3)",HaCaTs,Significantly improved proliferation
same,fluorescent intensities of FITC-labeled PTβR2I whichever of PTβR2I or TGFβ1 bound first,TβR2 on HDFs,consistent
same,"phosphorylation of Smad2/3, PTβR2I with TGFβ1 vs TGFβ1 alone",TGFβ1/p-Smad2/3 pathway; high glucose,no substantial difference
same,α-SMA+ myofibroblast formation in presence of TGFβ1,TGFβ1/p-Smad2/3 pathway; high glucose,regardless of the addition of PTβR2I
same,expression of downstream marker α-SMA,"TGFβ1/p-Smad2/3 pathway; high glucose, TGFβ1",did not alter
same,TGFβ1/p-Smad2/3 pathway,TGFβ1/p-Smad2/3 pathway; normal glucose,apparently inhibited
same,cell viability,[1],no decrease in viability
